Experimental data as given in patent US20110269219A1, “Method for increasing algae growth and the use thereof in production of algae-derived biofuels and other chemical” (GST Growth, LLC, priority 2010, published 2011).

System: Protococcus
Experiment: Growth of Protococcus liquid cultures monitored at Absorbance 550 nm
Assay type: cell-based
Conditions: Protococcus in water
Text: Liquid cultures were established in the laboratory from the algae specimens collected to include three experimental treatments, which were: A control of Protococcus in water; • 1). Protococcus in water supplemented with 0.5% methanol, which is known to stimulate growth of PPFM bacteria; and • 2) Protococcus in water supplemented with a Vitamin B12 overproducing PPFM. The growth of the cultures was monitored at Absorbance 550 nm with the results below in Table 2 being obtained: […]

Molecule `CO` [Methanol, methanol] has an A550 nm (After One Week) of 0.094, an A550 nm (After Two Weeks) of 0.085 and an A550 nm (Start) of 0.069.
